Data taken from patent US11034672B1, “Tyrosine kinase inhibitor compositions, methods of making and methods of use” (Black Diamond Therapeutics, Inc., priority 2018, dated 2021).
pIC50: −log10 of the molar value.

What was measured:
wild type HER2 (HER2-WT) = wild type HER2 (HER2-WT) (Homo sapiens, UniProt P04626); test: BaF3 panel Cell Titer Glo proliferation, wild type HER2 (Example 3); format: cell-based; conditions: BaF3 transformant, 72 hours, FIG. 21; read-out: IC50, HER-WT
Experimental: (§1) To determine the ability of Compound No. 6 to target wild type HER2, wild type EGFR, and relevant mutants of each, a panel of BaF3 cell lines and the A431 cell line were dosed and assessed in cell proliferation assays. The BaF3 parental cell line is normally dependent on IL-3 for proliferation, but when transformed with active tyrosine kinase can grow in the absence of IL-3. However, when transformed kinase activity is inhibited by a targeted small molecule the associated proliferation is reduced in proportion to the extent of inhibition. A panel of BaF3 cell lines were generated by transforming the parental BaF3 cell line with wild type HER2 (HER2-WT), HER2 S310F (HER2-S310F), HER2 Exon 20 insertion YVMA (HER2-YVMA), EGFR-Exon 20 insertion ASV (EGFR-ASV), EGFR-Exon 20 insertion SVD (EGFR-SVD), or EGFR-Exon 20 insertion NPH (EGFR-NPH). The A431 […] cell line, which natively expresses WT-EGFR, was used to assess WT-EGFR inhibition. […] Proliferation was assessed using the Cell Titer Glo cell proliferation kit (Promega # G7573). […] Cell Titer Glo was added to plated cells at 15 ul per well, the plate was shaken for 20 minutes at room temperature, and luminescence was measured using Victor X3 Multimode plate reader (Perkin Elmer), Cell Titer Glo readings were taken following 72 hours (T72) after addition of Compound No. 6. […]

[1] = biological target: T1, EGFR-Exon 20 insertion NPH (EGFR-NPH) (Homo sapiens, UniProt P00533, DUP771-773); test: BaF3 panel Cell Titer Glo proliferation, EGFR-NPH (Example 3); format: cell-based; conditions: BaF3 transformant, 72 hours, FIG. 21
T1 construct: expressed in transfected cells; host or cells: BaF3 (murine pro-B), retroviral pMXs-IRES-Blasticidin
T1 sequence (P00533 with tags, fused parts or gaps DUP771-773): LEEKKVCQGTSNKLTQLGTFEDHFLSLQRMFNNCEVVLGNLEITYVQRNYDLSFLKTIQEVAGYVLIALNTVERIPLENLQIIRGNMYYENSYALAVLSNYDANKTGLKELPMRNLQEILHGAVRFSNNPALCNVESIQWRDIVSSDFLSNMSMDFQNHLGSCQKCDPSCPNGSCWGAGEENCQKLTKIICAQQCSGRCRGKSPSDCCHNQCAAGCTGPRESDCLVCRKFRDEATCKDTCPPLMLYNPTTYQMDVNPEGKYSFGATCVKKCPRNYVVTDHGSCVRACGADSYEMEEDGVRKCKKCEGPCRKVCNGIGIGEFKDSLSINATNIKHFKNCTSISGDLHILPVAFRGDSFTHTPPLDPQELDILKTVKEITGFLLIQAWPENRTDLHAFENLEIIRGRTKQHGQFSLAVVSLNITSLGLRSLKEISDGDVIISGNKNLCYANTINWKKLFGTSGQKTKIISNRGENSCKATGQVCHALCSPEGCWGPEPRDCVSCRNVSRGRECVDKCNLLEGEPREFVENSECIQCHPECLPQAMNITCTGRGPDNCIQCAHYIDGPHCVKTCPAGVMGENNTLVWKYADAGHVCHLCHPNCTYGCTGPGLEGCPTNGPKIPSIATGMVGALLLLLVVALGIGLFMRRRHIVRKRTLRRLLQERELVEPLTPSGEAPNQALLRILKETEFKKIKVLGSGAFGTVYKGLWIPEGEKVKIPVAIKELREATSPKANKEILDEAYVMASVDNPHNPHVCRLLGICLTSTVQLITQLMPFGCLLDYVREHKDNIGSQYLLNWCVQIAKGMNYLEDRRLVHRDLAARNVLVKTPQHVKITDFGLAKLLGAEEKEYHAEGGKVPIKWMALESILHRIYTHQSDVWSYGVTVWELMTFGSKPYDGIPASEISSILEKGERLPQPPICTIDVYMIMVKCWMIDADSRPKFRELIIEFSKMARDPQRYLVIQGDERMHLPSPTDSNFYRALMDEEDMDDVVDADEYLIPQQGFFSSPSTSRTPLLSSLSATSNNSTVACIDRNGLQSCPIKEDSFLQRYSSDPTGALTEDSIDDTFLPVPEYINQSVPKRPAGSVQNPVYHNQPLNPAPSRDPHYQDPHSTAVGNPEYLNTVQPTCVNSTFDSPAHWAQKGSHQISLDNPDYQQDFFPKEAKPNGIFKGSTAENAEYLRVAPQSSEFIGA
Experimental: as §1

[2] = biological target: T2, EGFR-Exon 20 insertion SVD (EGFR-SVD) (Homo sapiens, UniProt P00533, DUP768-770); test: BaF3 panel Cell Titer Glo proliferation, EGFR-SVD (Example 3); format: cell-based; conditions: BaF3 transformant, 72 hours, FIG. 21
T2 construct: expressed in transfected cells; host or cells: BaF3 (murine pro-B), retroviral pMXs-IRES-Blasticidin
T2 sequence (P00533 with tags, fused parts or gaps DUP768-770): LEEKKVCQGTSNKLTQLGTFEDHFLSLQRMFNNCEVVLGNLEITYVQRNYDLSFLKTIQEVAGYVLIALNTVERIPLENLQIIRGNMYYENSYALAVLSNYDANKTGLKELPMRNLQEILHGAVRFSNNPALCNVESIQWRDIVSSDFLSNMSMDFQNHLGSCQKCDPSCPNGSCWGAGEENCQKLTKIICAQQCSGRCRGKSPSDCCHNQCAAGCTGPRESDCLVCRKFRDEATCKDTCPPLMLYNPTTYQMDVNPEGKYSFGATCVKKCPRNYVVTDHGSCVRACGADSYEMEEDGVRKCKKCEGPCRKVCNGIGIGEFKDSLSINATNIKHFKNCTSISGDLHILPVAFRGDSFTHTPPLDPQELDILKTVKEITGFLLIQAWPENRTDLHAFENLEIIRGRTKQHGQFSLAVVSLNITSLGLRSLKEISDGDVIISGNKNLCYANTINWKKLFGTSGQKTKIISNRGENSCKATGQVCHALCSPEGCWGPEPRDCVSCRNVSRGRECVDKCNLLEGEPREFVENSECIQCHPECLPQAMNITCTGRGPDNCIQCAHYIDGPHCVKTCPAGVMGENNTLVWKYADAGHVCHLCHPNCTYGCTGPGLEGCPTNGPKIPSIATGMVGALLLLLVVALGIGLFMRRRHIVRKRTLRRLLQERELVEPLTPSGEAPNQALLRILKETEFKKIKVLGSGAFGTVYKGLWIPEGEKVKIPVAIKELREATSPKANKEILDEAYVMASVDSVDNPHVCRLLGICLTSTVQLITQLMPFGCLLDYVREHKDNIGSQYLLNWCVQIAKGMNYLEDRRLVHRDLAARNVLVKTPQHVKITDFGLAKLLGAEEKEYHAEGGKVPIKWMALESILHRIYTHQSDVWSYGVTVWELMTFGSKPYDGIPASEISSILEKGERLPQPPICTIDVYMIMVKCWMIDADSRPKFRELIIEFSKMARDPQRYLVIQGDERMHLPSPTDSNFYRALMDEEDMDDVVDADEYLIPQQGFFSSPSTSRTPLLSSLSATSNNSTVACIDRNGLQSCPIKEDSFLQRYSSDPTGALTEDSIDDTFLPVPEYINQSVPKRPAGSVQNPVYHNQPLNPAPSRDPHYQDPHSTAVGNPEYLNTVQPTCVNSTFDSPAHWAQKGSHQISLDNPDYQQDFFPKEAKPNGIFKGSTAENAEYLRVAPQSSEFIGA
Experimental: as §1

[3] = test system: HER2 and EGFR mutant activity (pErbB2, pERK); test: Tumor phosphosite AlphaLisa in mice bearing Her2 Exon 20-YVMA A775, Her2 S310F or EGFR-Viii BaF3 tumors (Example 7); format: in vivo; conditions: two day acute oral dosing, 50 mg/kg; tumors at 2, 5, 24 hours; FIG. 25
Experimental: Following the second dose, tumors were collected at 2 hours, 5 hours, and 24 hours. The tumor tissue was cut and homogenized using the Precellys Soft Tissue Homogenizing kit (KT03961-1-00.3.2) containing T-PER tissue protein extraction reagent (Thermo Scientific #78510), supplemented with Protease Inhibitor (Sigma P8340), and Phosphatase Inhibitors II and III (Sigma P5726 and P0044). Tissue samples were homogenized in the Precellys machine by spinning two times for one minute each. Sample tubes were centrifuged for 5 min at 15,000 rpm at 4° C. The supernatant was transferred to a fresh microtube and spun again for 5 minutes at 15,000 rpm at 4° C. Supernatant was then transferred to a fresh microtube and placed on ice. The protein concentration of the supernatant was measured using the BCA reagent Kit (Thermo Scientific #23225). Tumor tissue-derived lysates were analyzed for either HER2 activity or EGFR activity by detection of pErbB2 (Tyr1221/1222) or pERK (Thr202/Tyr204) phosphosites, respectively, via AlphaLisa. Briefly, tumor Lysates were diluted to 0.5 ug/ul in 1× diluted SureFire Ultra Kit Lysis Buffer (5× supplied stock) supplemented with Protease inhibitor (Sigma P8340) and Phosphatase Inhibitor II and III (Sigma P5726 and P0044). […] The plate was covered and shaken for 5 minutes on a plate shaker and then incubated at room temperature in the dark for 90 minutes before reading.

[4] = test system: EGFR mutants (EGFR-ASV, EGFR-NPH) over wild type EGFR; test: Relative selectivity, GI50 in A431 versus CUTO-14 and CUTO-17 (Example 5); format: cell-based; conditions: 72 hours, FIG. 23
Experimental: A shown in the top panel of FIG. 23, marketed compounds that target EGFR mutants show off-target binding to wild type EGFR, resulting in toxicities and reduced efficacy (FIG. 23, top panel). […] Following dosing, the cells were assessed for EGFR mutant signaling and cell proliferation. To measure signaling, the pERK AlphaLisa (Perkin Elmer # ALSU-PERK-A10K) was used to quantify phosphorylation of ERK1/2 (Thr202/Tyr204) in all treated cells. Cell proliferation was determined using the Cell Titer Glo assay (Promega G7573) at 72 hours following treatment. IC50 values for both pERK and growth inhibition (GI50) were determined (FIG. 23, bottom table). […] The ratio of the GI50 value in A431 cells to the GI50 in CUTO-14 and the ratio of the GI50 value in A431 cells to the GI50 in CUTO-17 was calculated (FIG. 23, bottom table). Higher ratios represent higher selectivity for the EGFR mutants compared to EGFR-WT.

wild type HER2 (HER2-WT), sequence (P04626 23-1255): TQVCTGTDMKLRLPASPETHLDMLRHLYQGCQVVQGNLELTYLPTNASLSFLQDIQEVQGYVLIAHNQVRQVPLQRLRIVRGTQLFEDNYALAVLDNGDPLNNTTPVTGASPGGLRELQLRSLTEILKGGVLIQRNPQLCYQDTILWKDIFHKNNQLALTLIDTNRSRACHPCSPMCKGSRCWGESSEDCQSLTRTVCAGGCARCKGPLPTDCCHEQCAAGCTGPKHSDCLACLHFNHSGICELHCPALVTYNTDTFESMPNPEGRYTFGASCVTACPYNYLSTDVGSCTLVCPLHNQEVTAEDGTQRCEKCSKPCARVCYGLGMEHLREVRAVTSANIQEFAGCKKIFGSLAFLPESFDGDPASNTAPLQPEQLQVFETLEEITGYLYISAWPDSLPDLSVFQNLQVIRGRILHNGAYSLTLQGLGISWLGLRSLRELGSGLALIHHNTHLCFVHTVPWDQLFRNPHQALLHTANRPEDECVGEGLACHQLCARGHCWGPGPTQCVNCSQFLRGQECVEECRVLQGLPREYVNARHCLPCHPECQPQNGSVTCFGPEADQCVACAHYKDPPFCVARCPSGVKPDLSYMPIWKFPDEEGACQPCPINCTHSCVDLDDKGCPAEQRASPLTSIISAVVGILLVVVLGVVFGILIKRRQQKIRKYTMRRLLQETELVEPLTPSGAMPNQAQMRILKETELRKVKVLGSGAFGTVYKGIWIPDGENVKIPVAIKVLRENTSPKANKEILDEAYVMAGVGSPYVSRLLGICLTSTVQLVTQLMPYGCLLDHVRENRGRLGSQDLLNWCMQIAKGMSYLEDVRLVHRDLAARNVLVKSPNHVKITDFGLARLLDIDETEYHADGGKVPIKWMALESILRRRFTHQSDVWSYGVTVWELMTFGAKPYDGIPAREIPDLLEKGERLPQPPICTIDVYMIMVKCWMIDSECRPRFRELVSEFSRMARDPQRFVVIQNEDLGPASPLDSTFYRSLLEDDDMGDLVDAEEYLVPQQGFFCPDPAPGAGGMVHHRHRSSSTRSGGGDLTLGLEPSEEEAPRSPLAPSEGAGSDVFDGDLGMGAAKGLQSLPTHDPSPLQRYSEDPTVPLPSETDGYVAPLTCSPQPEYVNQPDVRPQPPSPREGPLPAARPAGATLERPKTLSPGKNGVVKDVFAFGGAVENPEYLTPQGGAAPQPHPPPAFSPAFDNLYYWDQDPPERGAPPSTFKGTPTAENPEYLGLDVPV

SMILES	pIC50 (wild type HER2 (HER2-WT))	pIC50 [1]	pIC50 [2]	Phosphorylation of ERK-related phosphosite pERK (Thr202/Tyr204) in tumors [3]	Phosphorylation of HER2-related phosphosite pErbB2 (Tyr1221/1222) in tumors [3]	Selectivity for EGFR mutants over EGFR-WT (ratio of GI50 in A431 to GI50 in CUTO-14 / CUTO-17) compared to marketed EGFR inhibitors [4]
C=CC(=O)Nc1cc2c(Nc3cc(Cl)c(OCc4cccc(F)c4)cc3F)ncnc2cc1OCCN1CCOCC1 [compound 6]	> 8.00	> 7.00	> 7.00	–	–	–
C=CC(=O)Nc1cc2c(Nc3ccc(OCc4ccccn4)c(Cl)c3)ncnc2cc1OCCN1CCOCC1 [compound 8]	–	–	–	significant reduction	significant reduction	reduced off-target binding to EGFR-WT relative to the marketed inhibitors
